Data on three compounds can be found in PMC7910999, “Hyaluronidase Inhibitor-Incorporated Cross-Linked Hyaluronic Acid Hydrogels for Subcutaneous Injection” (Pharmaceutics, 2021).

Converted amounts (≈) assume the structure as drawn. Like-named read-outs stand apart in the source and are kept apart here.

Data set [1] can be described thus: Solubility in various media (HPLC). Format: physicochemical. The following applies: for solubility: unpublished data. As for the experimental part: In order to select a solvent for hydrating (i.e., swelling) the cHA gel, the solubilities of QTP hemifumarate and the QTP base in distilled water (DW), phosphate-buffered saline (PBS; pH = 7.4), and ethanol (EtOH) were determined by high-performance liquid chromatography (HPLC). Briefly, an excess amount of QTP hemifumarate or QTP base was added to 1 mL of each solvent and completely vortex-mixed with vortex shaker (Vortex-Genie 2; Scientific Industries, Inc., Bohemia, NY, USA) at […] 37 °C for 1 day. Upon reaching the steady state, each sample was centrifuged and filtered to eliminate undissolved fractions. An HPLC system equipped with an automatic injector (Waters 717 plus), a pump (Waters 1515; Waters Company, Milford, MA, USA), and a UV/VIS detector (Waters 2487) connected with a reverse-phase C18 column (Kinetex C18; 250 × 4.6 mm, 5 μm; Phenomenex, Torrance, CA, USA) was utilized for measuring the concentration of QTP in each medium. The flow rate of the mobile phase and the injection volume of the specimen were set to 1.0 mL/min and 20 μL, respectively. The mobile phase consisted of 30 mM ammonium acetate in DW (pH 6.0) and methanol (30:70, v/v). The absorption wavelength was set to 238 nm for detection and the retention time of QTP was 14 min [23].
The QTP base precipitate was prepared using a previously reported desalting method with a slight modification. Briefly, QTP hemifumarate (10 mg) was solubilized in a 1 N HCl solution (0.7 mL), and then, a 1 N NaOH solution (0.8 mL) was added for precipitating the QTP base. The sample was then centrifuged at 16,000× g for 5 min and the supernatant portion was eliminated. After adding 1 mL of DW to the precipitate, it was centrifuged again, and the supernatant was removed. Finally, the QTP base precipitate was freeze-dried at −70 °C for 48 h for further use.

Data set [2] concerns the target T1, HAase (from bovine testes) (Bos taurus, UniProt Q2YDK3).
T1 construct: purchased Sigma-Aldrich Co. (St. Louis, MO, USA); host or cells: bovine testes (tissue-derived preparation)
T1 sequence (Q2YDK3 36-553): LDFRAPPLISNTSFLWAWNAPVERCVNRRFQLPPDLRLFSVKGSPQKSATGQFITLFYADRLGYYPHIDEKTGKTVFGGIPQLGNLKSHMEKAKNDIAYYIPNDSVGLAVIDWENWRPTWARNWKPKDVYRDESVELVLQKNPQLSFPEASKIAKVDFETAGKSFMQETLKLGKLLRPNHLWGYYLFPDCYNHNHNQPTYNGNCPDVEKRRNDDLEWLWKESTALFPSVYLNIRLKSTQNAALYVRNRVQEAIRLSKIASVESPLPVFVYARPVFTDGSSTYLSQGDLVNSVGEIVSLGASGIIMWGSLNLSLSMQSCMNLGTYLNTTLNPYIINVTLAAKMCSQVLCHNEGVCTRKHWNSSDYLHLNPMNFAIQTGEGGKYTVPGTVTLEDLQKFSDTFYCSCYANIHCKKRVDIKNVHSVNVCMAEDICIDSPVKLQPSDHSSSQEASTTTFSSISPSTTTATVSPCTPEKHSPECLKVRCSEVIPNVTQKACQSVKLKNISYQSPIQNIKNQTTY
The data set is described as follows: In vitro degradation of cHA hydrogels in PBS containing HAase. The data set is classed as in vitro ADME. The following applies: QCT loaded in cHA hydrogels, 8 h, 5 U/mL HAase. The method, then:
The in vitro degradation feature of the cHA hydrogel structures was investigated by monitoring the mass change of the hydrogels compared to their initial weight according to a previously reported, slightly modified method. Briefly, to evaluate the weight change of the cHA and QCT-loaded cHA hydrogels (i.e., cHA/QCT1, cHA/QCT3, and cHA/QCT5), each gel specimen (approximately 1.1 g) was placed into 10 mL of a PBS solution containing 5 U/mL of HAase. Upon immersion in the media, the weight of the hydrogels was measured at 2, 4, 6, and 8 h. The remaining weight percentage (%) of each hydrogel compared to the initial weight was recorded.

For data set [3] the following is noted: rats, intragastric administration; cited from earlier work.
Data set [4] is described as follows: In vitro release of QTP (dialysis bag method). Format: physicochemical. The note with it: within 8 h; PBS with 0.5% SLS, 37 °C. As for the experimental part:
The release of QTP from the cHA hydrogels was measured using the dialysis bag method. Briefly, aliquots of the free QTP solution (in ethanol/PEG 400/PBS = 1/1/2 (v/v/v)) and the QTP-loaded hydrogels (i.e., cHA/QTP and cHA/QTP/QCT5) (corresponding to 12 mg of QTP) were loaded into dialysis membranes (2 kDa of molecular weight cut-off; Cellu Sep H1, Membrane Filtration Products Ltd., Seguin, TX, USA). In case of cHA/QTP/QCT5 + HAase group, HAase (1 mg/mL) was added to the cHA/QTP/QCT5 hydrogel. Each membrane sac was immersed in PBS (20 mL) containing 0.5% SLS, and then they were agitated in a shaking water bath (37 °C) at 50 rpm. Aliquots of the release media were collected at 0.5, 1, 2, 4, 6, 8, 24, 48, 72, 96, 144, 168, 192, 288, 336, and 360 h, and the same volume of fresh medium was replenished each time. The QTP concentrations in the release media were quantitatively determined by the HPLC method described above.

For the compound `O=c1c(O)c(-c2ccc(O)c(O)c2)oc2cc(O)cc(O)c12` [QCT, quercetin], the solubility (commonly how much of the substance goes into solution per volume) in data set [1] (ethanol, organic solvent or mixture, EtOH, read-out: Solubility in EtOH) was 17.6 ± 1.05 mg/mL (≈ 58.4 mM); in data set [1] (water, read-out: Solubility in water), < 0.01 mg/mL. Also, in data set [2], the HAase inhibition result is recorded as “inhibited HAase in a dose-dependent manner”.

Consider `OCCOCCN1CCN(C2=Nc3ccccc3Sc3ccccc32)CC1` [QTP base, quetiapine], for which the solubility at 1 day in data set [1] (ethanol, organic solvent or mixture, thermodynamic from solid, EtOH, Figure 2A) is > 50 mg/mL.

Regarding `OCCOCCN1CCN(C2=Nc3ccccc3Sc3ccccc32)CC1` [QTP, quetiapine], the Biological half-life in data set [3] is recorded as 2.1 h. In addition, the “QTP diffused from the dialysis membrane” value in data set [4] is “over 90%”.
